From patent US6897228B2, “Pyridoxine and pyridoxal analogues: new uses” (Medicure International Inc., priority 2000, dated 2005) come the findings set out here.

The test system of the assay is Platelets from HIT patients. As to the kind of experiment: Heparin-induced aggregation and ATP release of platelets from HIT patients. In kind it is cell-based, human. The source says: XL was capable of inhibiting the aggregation of platelets drawn from patients known to have heparin induced thrombocytopenia (HIT). Platelets from HIT patients were challenged with 0.5 U/ml concentration of heparin in the presence and absence of drug. […] XL is useful as an antiplatelet treatment for HIT patients who cannot be administered heparin due to the immune reaction with heparin that leads to aggregation rather than thrombolysis.
Platelets were drawn from HIT patients and challenged with heparin to a final concentration of 0.5 U/ml of low molecular weight heparin, in the presence and absence of the drug. […] ATP was detected in a lumi aggregometor (Chronolog Corp.). A luciferin-luciferase mixture was used to detect ATP release. The luciferin-luciferase mixture was previously calibrated to a known amount of ATP. Thus a spike in ATP release indicated platelet aggregation. As shown by the data, HIT patents have a large amplitude release when there is no XL compound present. When XL compound is present it inhibits this characteristic release of ATP.
Low heparin is low molecular weight heparin and high heparin is unfractionated heparin. The presence of low molecular weight heparin will cause platelet aggregation. All samples were treated with a constant final concentration of heparin; 0.5 U/ml—low and 100 U/ml high. HIT causes platelet aggregation in the Low Concentration of Heparin only, as well as a ration of >5.0 when comparing the Low/High concentration of Heparin.

Turning to `Cc1ncc(CNc2ccc(-c3ccc(C(=N)N)cc3)cc2)c(CO)c1O` [Compound XL], the “effects of heparin induced thrombocytopenia (HIT)” value (500 micromolar) is listed as “completely suppress”. Also, the “aggregation of platelets from HIT patients” value (500 micromolar, 0.5 U/ml heparin) is on record as “completely suppress”. Moreover, the “Amplitude of ATP release spike (low Heparin)” value is, setting by setting: (Patient 1, 500 μM, 0.5 U/ml low heparin, without drug 363) 14; (Patient 1, 2 mM) 28; (Patient 2, 500 μM, without drug 286) 11; (Patient 2, 2 mM) 12. Moreover, the “Ratio of Low/High Heparin” value reads like this: (Patient 1, 500 μM, without drug 42.4, HIT ratio >5.0) 1.9; (Patient 1, 2 mM) 2.7; (Patient 2, 500 μM, without drug 37.6) 1.6; (Patient 2, 2 mM) 1.6. The “Aggregation (Low Heparin)” value runs as follows: (Patient 1, 500 μM, without drug Present) “Absent”; (Patient 1, 2 mM) “Absent”; (Patient 2, 500 μM, without drug Present) “Absent”; (Patient 2, 2 mM) “Absent”. Besides, the “characteristic release of ATP of HIT platelets” value (heparin challenge, lumi aggregometer) is reported as “inhibits”.
